According to patent US11590117B2, “Treatment of a hematologic malignancy with 2-(4-chlorophenyl)-n-((2-(2,6-dioxopiperidin-3-yl)-1-oxoisoindolin-5-yl)methyl)-2,2-difluoroacetamide” (priority 2016, dated 2023):
Values joined by “and” are separate entries in the source; they are usually repeats but may differ in a detail not shown here. Equal values may be shown once. Read-outs that look alike come from different tables or passages of the source.

Assays:
[1] = tested on: Red-labeled AML cell lines; test: IncuCyte live cell imaging of cell viability, sub-panel of twelve Red-labeled AML cell lines; format: cell-based; conditions: Homo sapiens, 96 h
Description: Derivation of Red-labeled Acute Myeloid Leukemia Cell Lines: Twelve cell lines, including AML-193, HL-60, KG-1, ML-2, MOLM-13, MV-4-11, NOMO-1, OCI-AML2, OCI-AML3, SIG-M5, TF-1, and THP-1, were stably transduced with Red lentivirus. Cells were plated in 6-well plates in growth media, incubated with 8 µg/mL polybrene (EMD Millipore Cat no. TR-1003-G) followed by infection with CellPlayer™ NucLight™ Red-lentiviral particles (Essen Biosciences Cat no. 4478) at a multiplicity of infectivity (MOI) of 0.5 to 2.5 for 24 hours. MOI refers to the ratio of virus particles to cells. Virus-containing media was replaced with fresh growth media and incubated for an additional 24 to 48 hours, followed by selection with Zeocin (500 to 2000 μg/mL), a derivative of bleomycin (Life Technologies-Invitrogen Cat no. R250-01). Cells were selected with fresh Zeocin every 3 to 4 days for 3 to 8 weeks. Cells were periodically viewed using fluorescent microscopy for nuclear-restricted red fluorescence. Zeocin selection was terminated once the population was confirmed to stably fluoresce red. All Red-labeled cell lines were acclimated to EMEM containing 20% FBS, with or without GM-CSF supplementation, allowing for optimal live cell imaging.
Incubation of Cell Cultures with Compound 1: Compound 1 was provided for studies by Celgene chemistry group at a stock concentration of 30 mM in 20 μL dimethyl sulfoxide (DMSO) frozen. Costar 96-well cell culture plates (Corning Cat no. 3595) were coated with 100 μL of 10 µg/mL fibronectin (Sigma-Aldrich Cat no. F1141) for 4 hours at 37° C. and immediately used or refrigerated overnight for later use. Cells (3000 to 6000 cells) were plated in growth medi in fibronectin-coated 96-well plates and incubated for a minimum of a few hours to overnight. Cells were incubated with a 12-point concentration response in triplicate with Compound 1 ([…]) including DMSO and Media controls. A 3-fold serial dilution of Compound 1 starting from a concentration of 200 μM in 0.6% DMSO (diluted in Media) was performed. For most sensitive cell lines, a 3-fold serial dilution of Compound 1 starting from a concentration of 20 μM in 0.6% DMSO (diluted in media) was performed. A volume of 5 μL or 10 μL for each dilution was added to 100 μL or 200 μL cells, respectively (0.3% DMSO final) and incubated for live cell imaging.
Live Cell Imaging on IncuCyte Zoom: Following incubation of cells with Compound 1, diluted Caspase 3/7 reagent (Essen Biosciences Cat no. 4440) is added to each well. […] Caspase-3/7 activation was quantified using the IncuCyte™ ZOOM basic analyzer. […]
Twelve Red-labeled human AML cell lines, established as described above, were incubated with Compound 1 dose range (0 to 10 μM) and Red fluorescence or Object count was imaged over time, as described above. […]

[2] = tested on: CFU-GM (granulocyte/monocyte progenitors); test: Colony forming assay, bone marrow CD34+ cells in MethoCult; format: cell-based, human
Description: Experimental design: human bone marrow (BM) CD34+ cells were used to evaluate the potential for BM toxicity induced by Compound 1. In order to test the effects of Compound 1 on the functionality of hematopoietic progenitors, colony forming assays were done by seeding BM CD34+ cells on MethoCult medium. Cells were seeded directly in MethoCult with Compound 1 or cultured in liquid medium with Compound 1 for 2, 4, or 8 hours and then seeded in compound-free MethoCult to evaluate the effect of different exposure times. Early apoptosis induced by Compound 1 on HSC was analyzed by flow cytometry.
Results. Colony forming units (CFU) of common granulocyte/erythrocyte/monocyte/megakaryocyte (CFU-GEMM), CFU of granulocyte/monocyte (CFU-GM), burst forming unit of erythrocytes (BFU-E), and CFU of erythrocytes (CFU-E) in cultures exposed to Compound 1 or DMSO were scored on STEMvision.
Bone marrow CD34+ cells from normal donors were incubated with Compound 1 in MethoCult medium. Colony numbers for CFU-GM and BFU-E progenitors were counted using STEMVision automatic colony counting instrument and software and normalized to the colony number of the DMSO control. Results plotted as percentage of DMSO control vs concentration of Compound 1 were used to determine IC50 values. Data are shown as mean standard error of the mean of n=3 technical replicates. Donors were HD10, HD14, HD18, and HD19.
FIGS. 33A and 33B provide, colony numbers after preincubation of bone marrow CD34+ cells with Compound 1 for 4 or 8 hours, respectively, in Iscove's medium, followed by incubation in MethoCult medium without Compound 1 for 14 days. FIG. 33C provides colony numbers after incubation of bone marrow CD34+ cells in MethoCult medium in continuous presence of Compound 1 for 14 days.

## O=C1CCC(N2Cc3cc(CNC(=O)C(F)(F)c4ccc(Cl)cc4)ccc3C2=O)C(=O)N1 (stereo not shown) [Compound 1, 2-(4-chlorophenyl)-N-((2-(2,6-dioxopiperidin-3-yl)-1-oxoisoindolin-5-yl)methyl)-2,2-difluoroacetamide]
[1]; four moderately sensitive cell lines (TF-1, THP-1, SIG-M5, OCI-AML3), read-out: cell viability EC50 96hr (range)
  EC50: 58 to 186 nM
[1]; four moderately sensitive cell lines, read-out: cell viability average EC50 96hr
  EC50: 121 nM
[1]; seven highly sensitive cell lines (AML-193, ML-2, HL-60, KG-1, NOMO-1, MV-4-11, OCI-AML2), read-out: cell viability EC50 96hr (range)
  EC50: 2 to 40 nM
[1]; seven highly sensitive cell lines, read-out: cell viability average EC50 96hr
  EC50: 15 nM
[2]; Donor HD10, 7.4 nM Compound 1, replicate counts
  Colony Number CFU-GM: 82 and 74
[2]; Donor HD10, 22.2 nM Compound 1, replicate counts
  Colony Number CFU-GM: 71 and 80
[2]; Donor HD10, 67 nM Compound 1, replicate counts
  Colony Number CFU-GM: 48 and 61
[2]; Donor HD10, 200 nM Compound 1, replicate counts
  Colony Number CFU-GM: 2 and 0
[2]; Donor HD10, 600 nM Compound 1, replicate counts
  Colony Number CFU-GM: 0
[2]; Donor HD14, 7.4 nM Compound 1, replicate counts
  Colony Number CFU-GM: 15 and 12
[2]; Donor HD14, 22.2 nM Compound 1, replicate counts
  Colony Number CFU-GM: 16 and 15
[2]; Donor HD14, 67 nM Compound 1, replicate counts
  Colony Number CFU-GM: 6 and 4
[2]; Donor HD14, 200 nM Compound 1, replicate counts
  Colony Number CFU-GM: 0
[2]; Donor HD14, 600 nM Compound 1, replicate counts
  Colony Number CFU-GM: 0
[2]; Donor HD18, 7.4 nM Compound 1, replicate counts
  Colony Number CFU-GM: 59 and 73
[2]; Donor HD18, 22.2 nM Compound 1, replicate counts
  Colony Number CFU-GM: 55 and 62
[2]; Donor HD18, 67 nM Compound 1, replicate counts
  Colony Number CFU-GM: 2 and 6
[2]; Donor HD18, 200 nM Compound 1, replicate counts
  Colony Number CFU-GM: 0
[2]; Donor HD18, 600 nM Compound 1, replicate counts
  Colony Number CFU-GM: 0
[2]; Donor HD19, 7.4 nM Compound 1, replicate counts
  Colony Number CFU-GM: 44 and 70
[2]; Donor HD19, 22.2 nM Compound 1, replicate counts
  Colony Number CFU-GM: 34 and 35
[2]; Donor HD19, 67 nM Compound 1, replicate counts
  Colony Number CFU-GM: 4 and 5
[2]; Donor HD19, 200 nM Compound 1, replicate counts
  Colony Number CFU-GM: 0
[2]; Donor HD19, 600 nM Compound 1, replicate counts
  Colony Number CFU-GM: 0
[2]; Homo sapiens, CFU-GM, CD34+ cells from four healthy donors, Compound 1 in MethoCult, read-out: IC50, inhibition of granulo-monocytic progenitors (CFU-GM)
  IC50: 82 to 135 nM
